How the values were obtained:
[1] = system: Numb; test: Immunofluorescence of Numb in MDA-MB-231 breast cancer cells; type: cell-based; conditions: MDA-MB-231 cells; 0.01, 0.1, 1 or 10 μM
Description: MDA-MB-231 breast cancer cells were treated either with vehicle (control) or with 0.01 μM, 0.1 μM, 1 μM or 10 μM final concentration of doxorubicin, taxotere or KSA-101696. Then, the cells were cytospun to glass slides by centrifugation at 800 rpm for 3 min. Slides were then air-dried overnight and 4% formaldehyde fixed for 10 min. For staining, the cell membrane was permeabilized with 0.5% triton-X (Sigma) followed by overnight incubation with primary antibodies (anti-Numb, Abcam) and (anti-intracellular Notch-1, Cell Signalling) at 1:100. Cells were washed and stained with AlexaFluor goat anti-rabbit IgG 488 (Invitrogenat) 1:400 for 30 minutes. 300 nM DAPI (Invitrogen, Carlsbad, Calif., USA) was added for 10 minutes to counterstain the nuclei. Slides were mounted and immunofluorescence was visualized using BD Pathway 855 microscope.
Numb exerts its functional role on cell fate decisions by antagonizing Notch signaling activities. The molecular mechanisms underlying this relationship appear to rely on the ubiquitination of the membrane bound Notch-1 receptor and the subsequent degradation of its NICD (Notch intracellular domain) following receptor activation.

[2] = system: ALDH+ CD24low/CD44High breast cancer stem cells (from MDA-MB-468 cells); test: Apoptosis in sorted breast cancer stem cells versus differentiated cells; type: cell-based; conditions: 10 μM, two days; ALDH+ CD24low/CD44High vs ALDH- CD24High/CD44low from MDA-MB-468
Description: MDA-MB-468 Cells harvested, washed and incubated in aldefluor assay buffer containing an ALDH substrate (BAAA (BODIPY®-aminoacetaldehyde). For negative control, half of the cells of each sample was removed to another FACS tube and incubated under identical condition with DEAB, a specific inhibitor of ALDH enzyme. Then the cells were stained with the following directly conjugated monoclonal antibodies anti-mouse CD44-APC-Cy7 (Biolegend), anti-mouse CD24-Pacific Blue (EXBIO Praha, a.s.). All analyses and cell sorting were performed on a FACSAria™ cell sorter (BD Biosciences). Debris and cell clusters were excluded during side-scatter and forward-scatter analyses.
ALDH^+ CD24^low/CD44^High breast cancer stem cells were sorted and cultured for 24 h. Cells were then treated with 10 μM of the compound KSA-101696 for two days. At the same time, ALDH^− CD24^High/CD44^low breast cancer differentiated cells were used as a negative control to evaluate the selective apoptotic activity of the compound against breast cancer stem cells compared with differentiated phenotype from the same bulk population of MDA-MB-468 cells.

[3] = system: SP cells of BT-474; test: Mammosphere formation assay; type: cell-based; conditions: 5 μM, 7 days old mammospheres
Description: (§1) Cell were harvested and counted by using trypan blue to exclude the dead cells. Cells cultured in suspension (1000 cells/100 μL) in serum-free mammary epithelium basal medium, supplemented with B27 supplement 1:50; (GIBCO), 20 ng/mL EGF (epidermal growth factor; Preprotech), 5 μg/mL insulin (Sigma), 1% Antibiotic-Antimycotic (GIBCO) and 0.5 μg/ml hydrocortisone (Sigma), as described previously (Dontu et al.). Mammospheres were allowed to grow for 7 days, then treated for 72 h by either control media (0.1% DMSO) or media containing different concentrations of the compound. Mammospheres were counted on a Leitz Labovert inverted Microscope. Mammosphere size was measured and a picture was taken on a Evos transmitted light microscope.
(§2) It is known that one of the properties of stem/progenitor cells is their ability to survive under anchorage-independent conditions and generate mammospheres, which are composed of a small number of stem cells. Given that CSCs generally make up for a small minority of the cells within cancer cell populations, the dye DyeCycle Violet was used to isolate SP cells (side population cells; the side population is enriched for stem/progenitor cells), through a BD FACSAria™ cell sorter. Subsequently, the isolated SP cells were used in a Mammosphere Formation Assay. SP cells of MCF-7 and BT-474 formed more mammospheres than non-SP cells (see FIG. 4A).
(§3) Treatment of 7 days old mammospheres of both cell lines with 5 μM of KSA-101696 decreased the number of mammospheres formed by 50% compared to DMSO treatment (FIG. 4A).

[4] = system: SP cells of MCF-7; test: Mammosphere formation assay; type: cell-based
Description: as §1, §2, §3

[5] = Determination of LD50 value
Description: Swiss Webster Albino mice were housed in groups of 2 or 4 in elevated steel wire-mesh cages in a controlled room maintained at a temperature of 22±2° C., relative humidity of 50±10% and a 12 h light-dark cycle. Rodent diet chow (feed) provided by Grain Silos Flour Mills Organization, Riyadh, Saudi Arabia, and tap water for drinking were made available ad lib.
Male mice were divided into various groups (n=10 animals per group). Each group was administered a different dose of the respective compound via the intraperitoneal (i.p.) route. The dose range used was 100-5000 mg/kg.
During the observation periods there was a continuous record of any behavioral changes and clinical symptoms that caused by effects on the central and autonomic nervous systems, the respiratory and the cardiovascular systems or any other action on the gastrointestinal tract, the renal systems, eye, skin, skeletal muscles etc.
During the 72 hour observation period the number of animals that died in every group was recorded. The percentage of death calculated and converted to probits to calculate the LD50 value for each compound in mg/kg. The LD50 value reported in this study provided compounds in their liquid form in the provided concentrations.

[6] = system: T47D; test: Annexin V binding by flow cytometry (apoptosis); type: cell-based; conditions: high Numb expression, FIG. 9B
Description: It is known that loss of phospholipid asymmetry of the plasma membrane is an early event of apoptosis. The annexin V binds to negatively charged phospholipids, like phosphatidylserine. During apoptosis, the cells react to annexin V once chromatin condenses but before the plasma membrane loses its ability to exclude propidium iodide (PI).
Annexin-V staining was performed by using Vybrant Apoptosis Assay Kit #2 (Molecular Probes) following the manufacturer's recommendations. Annexin-V stained cells were analyzed by flow cytometry, measuring the fluorescence emission between 515 nm to 545 nm.
This experiment was carried out with three breast cancer cell lines: MDA-MB-468, SKBR-3 and T47D. The MDA-MB-468 cell line represents the basal like breast cancer (which is a breast cancer subtype with a more aggressive clinical behavior). The SKBR-3 cell line represents Her-2 overexpressing breast cancer. […] The T47D cell line represents ER/PR positive breast cancer. Unlike MDA-MB-468 cells or SKBR-3 cells, T47D cells are highly differentiated cells and respond very well to hormonal therapy and chemotherapy.
In a next step, it was investigated whether there was a correlation between Numb protein expression and sensitivity of a cell line to the apoptotic effects of KSA-101696. Apoptotic cells were determined by Annexin-V staining as described in Example 1.

[7] = system: HT-29 colon cancer cells; test: CD133 expression by flow cytometry; type: cell-based; conditions: 10 μM, 48 h
Description: In a further experiment, HT-29 colon cancer cells were cultured in 6 well plates and treated by KSA-101696 (10 μM) or vehicle for 48 h. Then, cells were collected and stained with a CD133 antibody and analyzed by flow cytometry.

## COc1ccc(-c2csc3nc4ccccc4n23)cc1 [KSA-101696, 3-(4-methoxyphenyl)benzo[4,5]imidazo[2,1-b]thiazole]
[1]
  Numb expression (immunofluorescence microscopy): induced Numb
[2]
  induced apoptosis in cancer stem cells compared to differentiated breast cancer cells: two-fold increase
[3]
  decrease of number of mammospheres formed compared to DMSO: 50%
[4]; MCF-7, 5 μM, 7 days old mammospheres
  decrease of number of mammospheres formed compared to DMSO: 50%
[4]; cell line not specified (FIG. 4B)
  size of treated mammospheres: reduction in the size
[5]; intraperitoneal
  Therapeutic ratio = LD50/ED50: 40
[5]; male, Swiss Webster Albino, mouse, in vivo, ip
  LD50 at 72 h: 2000 mg/kg
[6]
  apoptosis (Annexin-V) in relation to Numb expression: did not have such effects
[7]
  expression of colon cancer stem cell marker CD133: inhibition in the expression of the colon cancer stem cell marker CD133
